Data set [1] can be described thus: Pigment wetting: viscosity difference rate of pigment dispersion. The data set is classed as physicochemical. Conditions: 65% emollient with 35% red iron oxide; rheometer 20.0° C., 10.0 1/s; lower = better pigment wetting. The source says:
The viscosity of a pigment dispersion in oil is negatively correlated to the dispersion efficacy of the carrier liquid emollient. Therefore, decreased viscosities confirm the homogeneity of the dispersion. To calculate the viscosity difference rate between the pure emollient without added pigment and the pigment dispersion, the following formula will be used: Viscosity difference rate=(viscosity value after pigment dispersion−viscosity value before pigment dispersion)/(viscosity value before pigment dispersion) The lower the viscosity difference rate the better the pigment wetting. Mixtures of 65% emollient with 35% pigment (red iron oxide) were homogenized and analyzed*. [table]

Data set [2] can be described thus: Pigment dispersion: particle size by Grindometer. The data set is classed as physicochemical. The conditions noted are these: 65% emollient with 35% yellow iron oxide, next day, average of 3. The source says:
Mixtures of 65% emollient with 35% pigment (yellow iron oxide) were homogenized and analyzed*. [table]

In turn, Pentaerythrityl Tetraisostearate registered a Viscosity difference rate in data set [1] of 21. For the same substance, in data set [2], the Average particle size came to 31 μm.

For the origin of these results see patent US20240148625A1, “Estolide Esters For The Cosmetic Treatment Of Skin” (CLARIANT INTERNATIONAL LTD, priority 2020, published 2024).
